Details: Liquid, Closed cell (Static) method

C=C(F)C(F)(F)F [2,3,3,3-tetrafluoro-1-propene]
Details | vapor or sublimation pressure [kPa]
243.15 K | 99.4
248.15 K | 123.2
253.15 K | 151.4
258.15 K | 184.2
263.15 K | 222.4
268.15 K | 266.9
273.15 K | 317.2
278.15 K | 374.4
283.15 K | 438.5
288.15 K | 511.9
293.15 K | 591.7
